Measured values from ChEMBL document CHEMBL4196206, “Aturanosides A and B, Glycosylated Anthraquinones with Antiangiogenic Activity from a Soil-Derived Streptomyces Species” (J Nat Prod, 2018).
The source made the active and inactive calls. The calls are words filed in the database; no cut-off is given here.

Legend:
HUVEC [1] = assay: Cytotoxicity against VEGF-stimulated HUVEC at 100 uM after 24 hrs by EZ-Cytox cell viability assay; type: cell-based; settings: human
HUVEC [2] = assay: Antiangiogenic activity in HUVEC assessed as inhibition of VEGF-induced capillary tube formation by matrigel-based microscopic analysis; type: functional, cell-based; settings: Homo sapiens
[3] = biological target: Vascular endothelial growth factor receptor 2 (Homo sapiens) (UniProt P35968); assay: Inhibition of VEGFR2 phosphorylation in VEGF-stimulated HUVEC at 10 to 50 uM after 6 hrs by Western blot analysis; type: cell-based
HUVEC [4] = assay: Down regulation of VE-cadherin expression in VEGF-stimulated HUVEC at 10 to 50 uM after 6 hrs by Western blot analysis; type: functional, cell-based; settings: Homo sapiens
HUVEC [5] = assay: Antiinvasive activity in HUVEC assessed as inhibition of VEGF-induced cell invasion at 25 uM by crystal violet staining based matrigel invasion chamber assay; type: functional; settings: Homo sapiens
HUVEC [6] = assay: Down regulation of VE-cadherin expression in VEGF-stimulated HUVEC after 6 hrs by Western blot analysis; type: functional, cell-based; settings: Homo sapiens
[7] = biological target: Vascular endothelial growth factor receptor 2 (Homo sapiens) (UniProt P35968); assay: Inhibition of VEGFR2 phosphorylation in VEGF-stimulated HUVEC after 6 hrs by Western blot analysis; type: cell-based
HUVEC [8] = assay: Antiinvasive activity in HUVEC assessed as inhibition of VEGF-induced cell invasion by crystal violet staining based matrigel invasion chamber assay; type: functional; settings: Homo sapiens

Chain of Vascular endothelial growth factor receptor 2 (Homo sapiens) (P35968 whole entry): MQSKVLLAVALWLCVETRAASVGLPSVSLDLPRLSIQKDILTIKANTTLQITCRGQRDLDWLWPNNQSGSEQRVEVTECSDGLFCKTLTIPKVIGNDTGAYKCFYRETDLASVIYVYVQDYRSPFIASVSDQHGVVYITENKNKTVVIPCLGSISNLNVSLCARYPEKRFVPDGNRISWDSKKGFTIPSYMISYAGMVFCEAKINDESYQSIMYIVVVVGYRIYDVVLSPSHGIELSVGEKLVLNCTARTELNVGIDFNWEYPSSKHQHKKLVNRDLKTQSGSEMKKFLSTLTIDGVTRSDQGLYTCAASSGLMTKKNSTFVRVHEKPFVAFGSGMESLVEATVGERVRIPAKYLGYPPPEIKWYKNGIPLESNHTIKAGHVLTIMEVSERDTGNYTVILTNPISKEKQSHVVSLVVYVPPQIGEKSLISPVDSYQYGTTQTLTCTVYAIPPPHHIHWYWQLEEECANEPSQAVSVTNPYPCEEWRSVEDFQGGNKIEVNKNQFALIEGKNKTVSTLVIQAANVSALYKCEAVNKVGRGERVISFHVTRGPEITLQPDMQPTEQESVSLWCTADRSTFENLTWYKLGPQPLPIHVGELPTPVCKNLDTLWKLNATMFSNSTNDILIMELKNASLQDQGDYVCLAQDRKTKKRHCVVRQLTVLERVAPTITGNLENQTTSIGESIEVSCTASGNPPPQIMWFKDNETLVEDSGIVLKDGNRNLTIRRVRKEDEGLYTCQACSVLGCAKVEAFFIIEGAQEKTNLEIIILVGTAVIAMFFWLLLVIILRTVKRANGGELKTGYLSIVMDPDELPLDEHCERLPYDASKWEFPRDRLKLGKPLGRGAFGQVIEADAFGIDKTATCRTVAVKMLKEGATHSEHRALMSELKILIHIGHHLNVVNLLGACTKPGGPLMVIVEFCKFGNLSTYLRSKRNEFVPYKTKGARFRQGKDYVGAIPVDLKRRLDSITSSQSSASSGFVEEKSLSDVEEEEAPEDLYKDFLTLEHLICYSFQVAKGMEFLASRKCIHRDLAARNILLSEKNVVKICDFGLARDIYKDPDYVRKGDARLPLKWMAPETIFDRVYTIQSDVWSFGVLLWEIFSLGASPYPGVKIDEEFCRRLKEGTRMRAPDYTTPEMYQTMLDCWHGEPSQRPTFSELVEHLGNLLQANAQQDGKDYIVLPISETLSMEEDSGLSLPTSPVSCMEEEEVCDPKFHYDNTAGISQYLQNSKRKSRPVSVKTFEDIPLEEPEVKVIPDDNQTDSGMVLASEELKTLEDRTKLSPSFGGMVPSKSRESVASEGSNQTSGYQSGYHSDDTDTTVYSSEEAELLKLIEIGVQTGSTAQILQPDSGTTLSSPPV

Row | inhibition [3] | inhibition [7] | SMILES | Activity (HUVEC [1]) | inhibition (HUVEC [2]) | Activity (HUVEC [4]) | inhibition (HUVEC [5]) | Activity (HUVEC [6]) | inhibition (HUVEC [8])
1 | Active |  | CCCc1cc(O[C@@H]2O[C@@H](C)[C@H](O)[C@@H](O)[C@H]2OC2O[C@H](CO)[C@@H](O)[C@H](O)[C@H]2NC(C)=O)cc2c1C(=O)c1c(O)cc(O)cc1C2=O (some centres undefined) | Non-Toxic | Dose-dependent effect | Active | Active |  | 
2 |  | inactive | CCCc1c(C(=O)O)c(O)cc2c1C(=O)c1c(O)cc(O)cc1C2=O |  | inactive |  |  | inactive | inactive
3 | Active |  | CCCc1cc(O[C@@H]2O[C@@H](C)[C@H](O)[C@@H](O)[C@H]2O)cc2c1C(=O)c1c(O)cc(O)cc1C2=O | Non-Toxic | Dose-dependent effect | Active | Active |  | 
